pKi: −log10 of the molar value.

By pKi is commonly meant −log10 of the Ki, conventionally taken in molar units.

The assay deals with T1, prostanoide receptor subtype (mouse EP3 α) (Mus musculus, UniProt P30557).
T1 construct: expressed in transfected cells; host or cells: CHO cells (membrane fraction)
T1 sequence (P30557 1-365): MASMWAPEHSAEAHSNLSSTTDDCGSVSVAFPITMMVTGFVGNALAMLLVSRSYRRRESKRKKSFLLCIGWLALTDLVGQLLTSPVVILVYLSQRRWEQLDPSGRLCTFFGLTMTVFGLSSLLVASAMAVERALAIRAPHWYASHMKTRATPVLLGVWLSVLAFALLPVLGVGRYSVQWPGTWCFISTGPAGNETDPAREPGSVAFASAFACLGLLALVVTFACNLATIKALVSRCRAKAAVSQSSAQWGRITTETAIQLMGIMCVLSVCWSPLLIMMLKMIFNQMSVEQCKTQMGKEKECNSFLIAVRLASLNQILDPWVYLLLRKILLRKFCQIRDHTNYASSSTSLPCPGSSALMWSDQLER
Nature of the assay: Binding assay using expression cell of prostanoide receptor subtype ([3H]-PGE2 competition). To be noted: membrane fraction of CHO cells expressing mouse EP3 α; 2.5 nM [3H]-PGE2; 1 hour, room temperature; buffer pH6.0; Ki=IC50/(1+([C]/Kd)); read-out: Ki (dissociation constant). The procedure:
For example, in standard laboratory test, the effects of the compounds of the present invention were confirmed by inhibitory effect on binding PGE2 using expression cell of mouse receptor.
Binding Assay Using Expression Cell of Prostanoide Receptor Subtype
The preparation of membrane fraction was carried out according to the method of Sugimoto et al [J. Biol. Chem. 267, 6463-6466(1992)], using expression CHO cell of prostanoide receptor subtype (mouse EP3 α).
The standard assay mixture contained membrane fraction (0.5 mg/ml), [^3 H]-PGE2 in a final volume of […] was incubated for 1 hour at room temperature. The reaction was terminated by addition of 3 ml of ice-cold buffer. The mixture was rapidly filtered through a glass filter (GF/B). The radioactivity associated with the filter was measured by liquid scintillation counting.
Kd and Bmax values were determined from Scatchard plots [Ann. N.Y. Acad. Sci., 51, 660(1949)]. Non-specific binding was calculated as the bond in the presence of an excess ([…]) of unlabeled PGE2. In the experiment for competition of specific [^3 H]-PGE2 binding by the compounds of the present invention, [^3 H]-PGE2 was added at a concentration of 2.5 nM and the compounds of the present invention were at a concentration of 1 mM.
The following buffer was used in all reactions.
Buffer: 10 mM potassium phosphate (pH6.0), 1 mM EDTA, 10 mM MgCl2, 0.1 M NaCl
The dissociation constant (Ki) of each compound was calculated by the following equation.

On to `COC(=O)COc1cccc2c(CCC(=O)NC(c3ccccc3)c3ccccc3)cccc12` [Example 1, [5-(2-diphenylmethylaminocarbonylethyl)naphthyl-1-oxy]acetic Acid Methyl Ester], for which the pKi was 5.24.
Turning to `O=C(O)COc1cccc2c(CCC(=O)NC(c3ccccc3)c3ccccc3)cccc12` [Example 2, [5-(2-diphenylmethylaminocarbonylethyl)naphthyl-1-oxy]acetic Acid], the pKi is 7.96.
As to `O=C(O)COc1cccc2c(CCC(=O)NN(c3ccccc3)c3ccccc3)cccc12` [Example 2a, [5-[2-(3,3-diphenylcarbazoyl)ethyl]naphthyl-1-oxy]acetic Acid], the pKi was 6.96.
For `O=C(O)COc1cccc2c(CC(=O)NC(c3ccccc3)c3ccccc3)cccc12` [Example 2d, [5-(diphenylmethylaminocarbonylmethyl)naphthyl-1-oxy]acetic Acid], the pKi is 7.30.
As for `C[C@@H](NC(=O)CCc1cccc2c(OCC(=O)O)cccc12)c1ccccc1` [Example 2k, [5-[2-((1R)-1-phenylethyl)aminocarbonylethyl]naphthyl-1-oxy]acetic Acid], the pKi is 6.08.
To `C[C@H](NC(=O)CCc1cccc2c(OCC(=O)O)cccc12)c1ccccc1` [Example 2l, [5-[2-((1S)-1-phenylethyl)aminocarbonylethyl]naphthyl-1-oxy]acetic Acid] belongs 6.05.
Regarding `O=C(CCc1cccc2c(OCCO)cccc12)NC(c1ccccc1)c1ccccc1` [Example 3, 2-[5-(2-diphenylmethylaminocarbonylethyl)naphthyl-1-oxy]ethanol], the pKi is 7.59.
To `NC(=O)COc1cccc2c(CCC(=O)NC(c3ccccc3)c3ccccc3)cccc12` [Example 4, [5-(2-diphenylmethylaminocarbonylethyl)naphthyl-1-oxy]acetic Acid Amide] belongs 7.64.
In the case of `CN(C)C(=O)COc1cccc2c(CCC(=O)NC(c3ccccc3)c3ccccc3)cccc12` [Example 4a, N,N-dimethyl-[5-(2-diphenylmethylaminocarbonylethyl)naphthyl-1-oxy]acetic Acid Amide] it was 6.70; in that of `O=C(COc1cccc2c(CCC(=O)NC(c3ccccc3)c3ccccc3)cccc12)NCCO` [Example 4b, N-(2-hydroxyethyl)-[5-(2-diphenylmethylaminocarbonylethyl)naphthyl-1-oxy]acetic Acid Amide], 5.89; in that of `O=C(O)COc1cccc2c(CCNC(=O)C(c3ccccc3)c3ccccc3)cccc12` [Example 8, [5-[2-(diphenylmethylcarbonylamino)ethyl]naphthyl-1-oxy]acetic Acid], 7.17.

The values above are taken from patent publication US6013673A, “Naphthyloxy acetic acid derivatives” (Ono Pharmaceutical Co., Ltd., priority 1994, dated 2000).
